In patent US9096583B2, “Substituted 1,2,5-oxadiazole compounds and their use as herbicides II” (BASF SE, priority 2011, dated 2015):

Assays:
[1] = test system: ABUTH; experiment: greenhouse post-emergence herbicidal test, ABUTH; type: in vivo, Abutilon theophrasti; details: post-emergence method, application rate 1 kg/ha, scale from 0 to 100
Text: (§1) The seeds of the test plants were sown separately for each species. For the post-emergence treatment, the test plants were first grown to a height of 3 to 15 cm, depending on the plant habit, and only then treated with the active ingredients which had been suspended or emulsified in water. For this purpose, the test plants were either sown directly and grown in the same containers, or they were first grown separately as seedlings and transplanted into the test containers a few days prior to treatment. Depending on the species, the plants were kept at 10-25° C. or 20-35° C. The test period extended over 2 to 4 weeks. During this time, the plants were tended, and their response to the individual treatments was evaluated. Evaluation was carried out using a scale from 0 to 100. 100 means no emergence of the plants, or complete destruction of at least the aerial moieties, and 0 means no damage, or normal course of growth. A good herbicidal activity is given at values of at least 70 and a very good herbicidal activity is given at values of at least 85. [table]

[2] = test system: ALOMY; experiment: greenhouse post-emergence herbicidal test, ALOMY; type: in vivo, Alopecurus myosuroides; details: post-emergence method, application rate 0.25 kg/ha, scale from 0 to 100
Text: as §1

Compound | herbicidal activity against ABUTH [1] | herbicidal activity against ALOMY [2]
Cc1nonc1NC(=O)c1ccc(Cl)c2ncccc12 [I′.A-113] | good herbicidal activity (A good herbicidal activity is given at values of at least 70) | 
COc1nonc1NC(=O)c1ccc2c(c1Cl)S(=O)(=O)CCC2(C)C [I″.A-8] |  | very good herbicidal activity (a very good herbicidal activity is given at values of at least 85)
